Assay results taken from patent US11147746B2, “Hydrophobic dental surfaces” (priority 2016, dated 2021).
No end group written: not given here.

Key:
[1] = Water contact angle (sessile drop) on peptide-coated dentin; type: physicochemical
Description: The water contact angle (WCA) may be measured using the sessile drop method with deionized water as probe liquid. The sessile drop is the most common method for optical measurement of the contact angle using drop shape analysis. Measurement of the contact angle of a sessile drop that lies on the surface of a solid may be made with a contact angle goniometer, which allows measuring the contact angle visually by capturing the profile of a pure liquid on a solid substrate. The angle formed between the liquid-solid interface and the liquid-vapor interface is determined to be the water contact angle. A droplet is deposited by a syringe which is positioned above the sample surface, and a high-resolution camera may be used to capture the image from the profile or side view. The image may be analyzed using image analysis software. The measurement may be referred to as a static contact angle measurement. The change in WCA, or ΔWCA, is the difference between the average water contact angles after predetermined intervals of time, for example, 1 s and 21 s of drop contact with the tested surface, or the difference between the initial and the final water contact angles.
Water contact angles described according to the disclosure are with reference to the sessile drop technique, using a drop volume or 2-5 μL, for example, 3 μL. Similar or different values of WCA and ΔWCA for the same tested surfaces may be obtained using other methods to determine wettability of surfaces, such as the Wilhelmy method, or when using different drop volumes. In some examples, one or more of these or other techniques may be used to determine the WCA or ΔWCA.
The wettability of coated etched dentin with these peptides was evaluated in different conditions, for example, single or double GL13K coatings, rinsing with water or alcohol after coating, after deproteinization, with blow drying, alcohol drying, combinations of the two, or progressive alcohol drying after dentin etching, and using the same buffer solutions with or without peptides. Dynamic water contact angles (WCA) of water drops placed on the treated dentin surfaces were measured.
A drop of 3 μL of deionized water was dispensed using a contact angle meter (DCM-E1, Kyowa, Japan) on top of the dentin surfaces with and without treatments. Images of the drop were automatically taken with the camera of the contact angle meter every second for 21 s; i.e., until the shape of the drop on the surface was stable for all surfaces analyzed. The shape of the profile of the drop on the surface was then automatically identified by the equipment's software (Famas, Kyowa, Japan) and the contact angle between the liquid-solid interface and the liquid-vapor interface was determined. The reported WCA are average values at the end of the test; i.e., after 21 s the drop was in contact with the tested surface for at least 3 different drops in three different surfaces for each dentin treatment. ΔWCA is the difference between the average water contact angles after 1 s and 21 s of drop contact with the tested surface; i.e., the difference between the initial and the final water contact angles.
A de-proteinization step was used to remove demineralized/exposed collagen. […] A super-hydrophobic GL13K-coated dentin surface with water contact angles up to 100 was produced.

[2] = Saliva (enzyme) challenge of coated dentin, then WCA and acidic dye penetration; design: species or system bovine; settings: saliva at 37° C. for three consecutive days
Experimental: Peptide-coated dentin samples were challenged with saliva, which includes enzymes. Bovine dentin slabs, prepared as discussed above with reference to EXAMPLE 2, were incubated in freshly collected and filtered saliva (thus exposed to biodegrading enzymes) at 37° C. for three consecutive days. The WCA was subsequently measured, and the samples were further immersed in acidic blue dye for 4 h. GL13K-coated dentin retained its hydrophobic character after the challenge, with average WCA=105°. FIG. 7A is a photograph showing a transverse cross-section of a tooth slab including enamel and dentin and treated with a buffer solution, exposed to saliva for three days, and subjected to an acidic blue dye.

[3] = dentin prepared with the deproteinized method, then coated (samples S12, S14, S16)
[4] = progressive dehydration protocol (increasing ethanol concentrations)

| Sequence | WCA [1, 3] | water contact angles ([1]; etching, wet de-proteinization with 5% NaOCl, coating without alcohol dehydration (Example 8)) | WCA [1, 4] | ΔWCA [1, 4] | WCA ([1]; single coating on etched dentin, alcohol rinse and blow drying) | WCA ([1]; single coating on etched dentin, water rinse and blow drying) | WCA ([1]; two coating treatments, rinsing with alcohol) | variation of water contact angle over time ([1]; with respect to the etched dentin) | average WCA after saliva challenge [2] |
| --- | --- | --- | --- | --- | --- | --- | --- | --- | --- |
| GKIIKLKASLKLL [GL13K] | 85 ° | up to 100 | 120 ° | 4 ° | 55 ° | 70 ° | 100 ° | significantly reduced | 105 ° |
| VRLIVAVRIWRR [Sample 1018] | 84 ° |  |  |  |  |  |  |  |  |
